PubChem BioAssay (NCI)
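Assay format: 96-well plates, 48-hour exposure. TGI is the concentration that stops growth completely.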

Key:
Assay in all cases: inhibition of tumour cell growth, NCI panel, 48 h
[1] = system: 786-0 renal
[2] = system: A498 renal
[3] = system: A549 NSCLC
[4] = system: ACHN renal
[5] = system: BT-549 breast
[6] = system: CAKI-1 renal
[7] = system: CCRF-CEM leukemia
[8] = system: COLO 205 colon
[9] = system: DU-145 prostate
[10] = system: EKVX NSCLC
[11] = system: HCC-2998 colon
[12] = system: HCT-116 colon
[13] = system: HCT-15 colon
[14] = system: HL-60(TB) leukemia
[15] = system: HOP-62 NSCLC
[16] = system: HOP-92 NSCLC
[17] = system: HS 578T breast
[18] = system: HT29 colon
[19] = system: IGROV1 ovarian
[20] = system: KM12 colon
[21] = system: LOX IMVI melanoma
[22] = system: M14 melanoma
[23] = system: MALME-3M melanoma
[24] = system: MCF7 breast
[25] = system: MDA-MB-231 breast
[26] = system: MDA-MB-435
[27] = system: MDA-N
[28] = system: MOLT-4 leukemia
[29] = system: NCI-H226 lung
[30] = system: NCI-H23 lung
[31] = system: NCI-H460 lung
[32] = system: NCI/ADR-RES ovarian
[33] = system: OVCAR-3 ovarian
[34] = system: OVCAR-4 ovarian
[35] = system: OVCAR-5 ovarian
[36] = system: OVCAR-8 ovarian
[37] = system: PC-3 prostate
[38] = system: SF-268 CNS
[39] = system: SF-295 CNS
[40] = system: SF-539 CNS
[41] = system: SK-MEL-2 melanoma
[42] = system: SK-MEL-28 melanoma
[43] = system: SK-MEL-5 melanoma
[44] = system: SN12C renal
[45] = system: SNB-19 CNS
[46] = system: SNB-75 CNS
[47] = system: SR leukemia
[48] = system: SW-620 colon
[49] = system: T-47D breast
[50] = system: TK-10 renal
[51] = system: U251 CNS
[52] = system: UACC-257 melanoma
[53] = system: UACC-62 melanoma
[54] = system: UO-31 renal
[55] = system: K-562 leukemia
[56] = system: RPMI-8226 leukemia
[57] = system: RXF 393 renal
[58] = system: SK-OV-3 ovarian

`CCOc1ccc(N=NC2C(=O)N(C(=O)CC(=O)Nc3ccc(C)cc3)N=C2C)cc1` (stereo not drawn) showed a TGI [1] of 29.5 µM, a TGI [2] of 52.5 µM and a TGI [3] greater than 100 µM. For the same compound, the TGI [4] was greater than 100 µM, the TGI [5] was greater than 100 µM and the TGI [6] was greater than 100 µM. For the same compound, the TGI [7] was greater than 100 µM, the TGI [8] was greater than 100 µM and the TGI [9] was greater than 100 µM. For the same compound, the TGI [10] was 40.9 µM, the TGI [11] was greater than 100 µM and the TGI [12] was 25.8 µM. It also gave a TGI [13] greater than 100 µM, a TGI [14] greater than 100 µM and a TGI [15] of 34.3 µM. For the same compound, the TGI [16] was 39.9 µM, the TGI [17] was 40.1 µM and the TGI [18] was greater than 100 µM. The TGI [19] was greater than 100 µM, the TGI [20] was greater than 100 µM and the TGI [21] was 27.7 µM. It also gave a TGI [22] greater than 100 µM, a TGI [23] greater than 100 µM and a TGI [24] greater than 100 µM. For the same compound, the TGI [25] was 35.8 µM, the TGI [26] was 10.9 µM and the TGI [27] was 13.9 µM. It also gave a TGI [28] greater than 100 µM, a TGI [29] of 88.4 µM and a TGI [30] greater than 100 µM. The TGI [31] was 43.8 µM, the TGI [32] was 79.2 µM and the TGI [33] was greater than 100 µM. It also gave a TGI [34] of 95.7 µM, a TGI [35] greater than 100 µM and a TGI [36] of 31.2 µM. For the same compound, the TGI [37] was greater than 100 µM, the TGI [38] was 75.2 µM and the TGI [39] was 49.4 µM. The TGI [40] was 36.5 µM, the TGI [41] was greater than 100 µM and the TGI [42] was greater than 100 µM. It also gave a TGI [43] greater than 100 µM, a TGI [44] greater than 100 µM and a TGI [45] of 51 µM. The TGI [46] was 23.2 µM, the TGI [47] was greater than 100 µM and the TGI [48] was greater than 100 µM. The TGI [49] was greater than 100 µM, the TGI [50] was 93.2 µM and the TGI [51] was 32.2 µM. It also gave a TGI [52] greater than 100 µM, a TGI [53] of 52.6 µM and a TGI [54] of 78.7 µM.
Compound `CC1C2C=CC1C(c1c3ccc(=O)c(O)c-3oc3c(O)c(O)ccc13)C2C(=O)O` (stereo not drawn) has a TGI [1] greater than 100 µM, a TGI [2] greater than 100 µM and a TGI [3] greater than 100 µM. It also gave a TGI [4] greater than 100 µM, a TGI [5] greater than 100 µM and a TGI [6] greater than 100 µM. It also gave a TGI [7] of 7.38 µM, a TGI [8] greater than 100 µM and a TGI [9] greater than 100 µM. It also gave a TGI [10] greater than 100 µM, a TGI [11] greater than 100 µM and a TGI [12] of 69.7 µM. For the same compound, the TGI [13] was greater than 100 µM, the TGI [14] was greater than 100 µM and the TGI [15] was greater than 100 µM. The TGI [16] was greater than 100 µM, the TGI [17] was greater than 100 µM and the TGI [18] was greater than 100 µM. It also gave a TGI [19] greater than 100 µM, a TGI [55] of 45.8 µM and a TGI [20] greater than 100 µM. The TGI [21] was 49.1 µM, the TGI [22] was greater than 100 µM and the TGI [24] was 40.8 µM. It also gave a TGI [25] greater than 100 µM, a TGI [26] of 36.2 µM and a TGI [27] of 45.9 µM. It also gave a TGI [28] of 56.4 µM, a TGI [29] of 86.5 µM and a TGI [30] greater than 100 µM. It also gave a TGI [31] greater than 100 µM, a TGI [32] greater than 100 µM and a TGI [33] greater than 100 µM. For the same compound, the TGI [34] was greater than 100 µM, the TGI [35] was greater than 100 µM and the TGI [36] was greater than 100 µM. The TGI [37] was greater than 100 µM, the TGI [56] was 59.5 µM and the TGI [57] was greater than 100 µM. The TGI [38] was greater than 100 µM, the TGI [39] was greater than 100 µM and the TGI [41] was greater than 100 µM. For the same compound, the TGI [42] was greater than 100 µM, the TGI [43] was greater than 100 µM and the TGI [58] was greater than 100 µM. The TGI [44] was 51.1 µM, the TGI [45] was greater than 100 µM and the TGI [47] was greater than 100 µM. It also gave a TGI [48] greater than 100 µM, a TGI [49] greater than 100 µM and a TGI [50] greater than 100 µM. The TGI [51] was greater than 100 µM, the TGI [52] was greater than 100 µM and the TGI [53] was greater than 100 µM. The TGI [54] was greater than 100 µM.
`O=C1/C(=C/c2cccc([N+](=O)[O-])c2)N=C(c2ccccc2)N1c1nc2c(Cl)cc(Cl)cc2s1` was tested, and the TGI [1] was greater than 100 µM, the TGI [2] was 57.8 µM and the TGI [3] was 52.2 µM. For the same compound, the TGI [4] was 74.2 µM, the TGI [5] was 94.6 µM and the TGI [6] was greater than 100 µM. For the same compound, the TGI [7] was 23.5 µM, the TGI [8] was greater than 100 µM and the TGI [9] was 70.1 µM. For the same compound, the TGI [10] was 53.3 µM, the TGI [11] was 61.9 µM and the TGI [12] was 37.4 µM. The TGI [13] was greater than 100 µM, the TGI [14] was 60.9 µM and the TGI [15] was 45 µM. It also gave a TGI [16] of 77.9 µM, a TGI [17] of 73.6 µM and a TGI [18] of 40 µM. The TGI [19] was 58.2 µM, the TGI [55] was greater than 100 µM and the TGI [20] was 45 µM. It also gave a TGI [21] of 32.7 µM, a TGI [22] of 46.8 µM and a TGI [24] of 93.8 µM. For the same compound, the TGI [25] was greater than 100 µM, the TGI [26] was 46 µM and the TGI [27] was 39.2 µM. The TGI [28] was 71.8 µM, the TGI [31] was greater than 100 µM and the TGI [32] was 85.4 µM. For the same compound, the TGI [33] was 39.1 µM, the TGI [34] was 71.8 µM and the TGI [35] was 87.9 µM. The TGI [36] was 49.5 µM, the TGI [37] was 64.4 µM and the TGI [56] was greater than 100 µM. The TGI [57] was 55 µM, the TGI [38] was 78.1 µM and the TGI [39] was greater than 100 µM. It also gave a TGI [40] of 48.1 µM, a TGI [41] of 48 µM and a TGI [42] greater than 100 µM. It also gave a TGI [43] of 33.5 µM, a TGI [58] of 85.7 µM and a TGI [44] of 54.7 µM. The TGI [45] was 65.4 µM, the TGI [47] was 57.9 µM and the TGI [48] was 73.1 µM. It also gave a TGI [49] of 68.9 µM, a TGI [50] greater than 100 µM and a TGI [51] of 37.2 µM. For the same compound, the TGI [52] was greater than 100 µM, the TGI [53] was greater than 100 µM and the TGI [54] was 49.6 µM.
